From patent US10842814B2, “Use of low dose arsenic for preserving genomic integrity” (Board of Regents of the University of Texas System, priority 2016, dated 2020)
Entries after “also recorded” stand apart in the source; their conditions may differ.

Columns and labels:
[1] = Observation of arsenic-induced malignancy in animal model; type: in vivo
Excerpt: Arsenic has different biological effects in vitro and induces expression of different sets of genes depending on the dose. Our approach with LDA aims to mitigate certain known adverse biological effects. For example, arsenic trioxide is a cytotoxic agent used to treat acute promyelocytic leukemia (APL). However, the dose of arsenic trioxide used for our strategy is much lower than the dose used to treat APL. Arsenic is also a known carcinogen.

[2] = biological target: T1, telomerase (Homo sapiens, UniProt O14746); assay: Telomerase activity by TRAP assay; type: cell-based; settings: HEK 293T, LDA 0 nM to 500 nM for 24 hrs, 12 Gy IR, further 48 hrs
T1 construct: Extracted protein (500 ng) was used to assess telomerase activity by TRAP; endogenous in cells; host or cells: HEK 293T cells
Method: FIG. 7. HEK cells were stimulated with ConA, 10 μg/ml. After 24 hrs, LDA was introduced (range from 0 nM to 500 nM) and again incubated 24 hrs. 12 Gy of IR was delivered, cells were incubated an additional 48 hrs and harvested. Extracted protein (500 ng) was used to assess telomerase activity by TRAP, compared with a telomerase positive control and no-Arsenic, no-IR control. HI: heat inactivated.
However, we will test this observation in T lymphocytes, which are known to dynamically regulate telomerase expression. This will better recapitulate the effect of LDA within the hematopoietic compartment.

[3] = tested on: human adult foreskin keratinocytes; settings: cited from earlier work
[4] = tested on: telomere; settings: individuals with telomere maintenance disorders; cited from earlier work
[5] = tested on: mouse embryonic stem cells expressing RAD51^K133A; assay: Loss of heterozygosity (LOH) assay, miniHPRT deletion, 6-TG resistance; type: cell-based
Excerpt: FIG. 8. […] NT; no arsenite treatment, WT; wild type embryonic stem cells, KA; mutant embryonic stem cells expressing RAD51^K133A
We performed a loss of heterozygosity (LOH) assay to detect mutations in the HPRT gene [resistance to 6-TG (thioguanine)] utilizing a mouse embryonic stem cells that express RAD51^K133A. We used a knockout-knockin strategy that introduces RAD51^K133A adjacent to the mouse RAD51 promoter while restoring miniHPRT, a positive/negative selection cassette: select for expression in HAT (hypoxanthine, aminopterin, thymidine) and select against expression in 6-TG. We screen for LOH of miniHPRT by selecting in 6-TG. Using this assay, we can detect a broad range of mutations. RAD51 is a recombinase that is essential for DNA double strand break repair and for protecting the nascent strand during replication. The K133A mutation is in the highly conserved Walker A motif and it causes a defect in ATP binding that disables the ability of RAD51 to induce topological changes in duplex DNA in an ATP-dependent manner.
For this assay, mutant mouse embryonic stem cells expressing RAD51^K133A were passaged two times while being selected in HAT to remove any cells that spontaneously deleted miniHPRT. Then LDA and HAT were applied to these cells for 2 days. […] Cells were then seeded onto new plates in 6-TG and colonies were counted 8 days later. […]

[6] = Clinical trial: toxicity and blood counts during myelosuppressive chemotherapy; type: in vivo, human
Excerpt: Additionally, data from a clinical trial supports a beneficial effect of LDA in patients. The trial had two objectives: 1) to define the lowest safe dose of arsenic trioxide that blocks p53 activation in patients and 2) to assess the potential of LDA in decreasing hematological toxicity from myelosuppressive chemotherapy. Patients scheduled for treatment with at least 4 cycles of myelosuppressive chemotherapy with a minimum of 2 weeks between the cycles were eligible.
The p53 expression level in patients' peripheral lymphocytes was measured as a surrogate marker for p53 activity for the patients. […] For the second stage of the study (second objective), patients were treated with chemotherapy without any LDA pretreatment before cycles 1, 3 and 5. They were treated with intravenous LDA of 0.005 mg/kg for 3 days prior to cycles 2, 4 and 6. […] Because the competing and compounding effects of multi-drug chemotherapy on p53 were felt to affect the p53 activity even in the presence of LDA pretreatment, we decided to focus on p53 activity obtained just prior to chemotherapy administration (on day 1). If the p53 activity level for the subsequent cycle (e.g., cycle 2 for cycle 1, cycle 4 for cycle 3 etc.) was lower than the baseline cycle, p53 was defined as “suppressed” for the pair of cycles. […]

[7] = tested on: peripheral T-lymphocytes; assay: Telomere length of ConA-stimulated peripheral blood T-lymphocytes after radiation or chemotherapy; type: cell-based, human; settings: 100 nM arsenic trioxide for 24 hours, then 12 Gy X-ray, harvested 48 hours later
Method: FIG. 2. T-lymphocytes isolated from healthy donors' peripheral blood were incubated with 10 μg/ml of Concanavalin A overnight. The cells were treated with either solvent or 100 nM arsenic (As) trioxide for 24 hours, followed by 12 Gy of X-ray treatment. Forty-eight hours later, the cells were harvested for telomere length measurement. The results represent four independent experiments. Paired student's t-test was used to calculate the p values.
FIG. 3. (A) Live cell percentage and (B) relative telomere length of T-lymphocytes in response to a serial dilution of etoposide. (C) Live cell percentage and (D) relative telomere length of T-lymphocytes treated with solvent or 160 μM etoposide in the presence or absence of LDA pretreatment.
FIG. 4. (A) Live cell percentage and (B) relative telomere length of T-lymphocytes in response to a serial dilution of doxorubicin. (C) Live cell percentage and (D) relative telomere length of T-lymphocytes treated with solvent or 1.6 μM doxorubicin in the presence or absence of LDA pretreatment.
As one of the first steps to explore the role of LDA in protecting the bone marrow from DNA DSBs as observed in FIG. 1 above, we studied the effect of LDA on telomere length in the setting of IR. We observed the expected shortening of telomere length in the peripheral T-lymphocytes (obtained from donors' peripheral blood and proliferated with ConA) after IR.

[8] = tested on: mouse embryonic stem (ES) cells (WT, msh2−/−, p53−/−); assay: Survival fraction of ES cells exposed to γ radiation and LDA; type: cell-based
Method: FIG. 6. Dose response to γ radiation and sodium (Na) arsenite. (A, B) Survival fraction curves to determine the working doses. The wild type (WT) cells (black, green) are the parental cells for the msh2 and p53 mutations, respectively. (C, D) Survival fraction curves with msh2−/− and p53−/− cells exposed to γ radiation and LDA (100 nM Na arsenite). Error bars are shown for the average of 3 independent experiments.
To discover LDA essential genes, cell survival and DNA damage/mutation assays will be performed. First we will establish working doses for all control and mutant cells in Table 1 since they will vary depending on the mutation. As a pilot we started with ES cells mutated for Msh2 and p53 since mutations in both are implicated in the development and progression of secondary MDS/AML.
Msh2 is a member of mismatch repair (MMR) important for postreplication repair and homologous recombination regulation while p53 is essential for responses to a variety of stresses including DNA damage and ribosomal stress. Based on the dose response curve (FIGS. 6A, B), cells will be exposed to 100 nM sodium arsenite 24 hours before exposure to 3-6 Gy. […] Since the differences for the […] cells and their control cells are small, we will repeat the experiment with different Na arsenite doses. […]

[9] = tested on: Karpas 422; assay: Mouse xenograft model with CD20 expressing lymphoma cell line, tumor volume; type: in vivo
Method: Treatments were initiated 1 week after implantation when tumors became palpable. Tumor volumes were measured periodically with calipers. Tumor volume was calculated using the equation: volume=length×width×depth×0.5236 […]. Two independent experiments were done and the tumor volumes were expressed as means±SE.

[10] = tested on: untransformed cells; assay: Pretreatment of untransformed cells with LDA: p53, NF-kB, glycolysis; type: cell-based; settings: in vitro and in vivo studies
Excerpt: Activation of p53 is one of the major pathways by which DNA damaging agents such as radiation therapy and chemotherapy cause toxicity in normal tissues and it induces a cascade of events that eventually leads to cell senescence or death. […] This metabolic shift provides cells with effective protection against cytotoxic radiation or chemotherapy, coupling the metabolic pathway to cellular resistance. […] This protective effect is selective to normal tissues, as it requires functional p53. Though not every cancer cell has detectable p53 mutation, essentially every cancer cell has dysfunctional p53. Therefore, cancer cells will not be protected by this strategy.
Activation of p53 is one of major pathways by which DNA damaging agents such as IR and chemotherapy cause toxicity in normal tissues, inducing a cascade of events that eventually leads to cell senescence or cell death. […] This metabolic shift provides cells with effective protection against cytotoxic IR or chemotherapy, coupling the metabolic pathway to cellular resistance. […] Importantly, this protective effect is selective to normal tissues, as it requires functional p53. Though not every cancer cell has a detectable p53 mutation, essentially every cancer cell has dysfunctional p53. Therefore, cancer cells will not be protected by this strategy.

[11] = tested on: bone marrow cells; assay: Bone marrow protection against Y-90 ibritumomab tiuxetan-induced damage (H&E, γ-H2AX, TUNEL staining); type: in vivo, BALB/c mice
Method: At the indicated time points, mice were sacrificed by cervical […] and bone marrows were harvested for staining. (A) Quantification of γ-H2AX positive cells.
LDA pretreatment was administered through drinking water containing 1 mg/L arsenic trioxide for three days. […] Tissue samples were collected at different time points (3 hours to 5 weeks) after treatment.
Bone marrow damage was analyzed histologically with hematoxylin and eosin (H&E) staining, DNA DSBs were assessed by γ-H2AX staining and apoptosis was detected by terminal deoxynucleotidyl transferase dUTP nick end labeling (TUNEL) staining.

[12] = tested on: T-cell leukemic cell line (Loucy); assay: Relative telomere length of T-cell leukemic cell line after 12 Gy radiation; type: cell-based; settings: presence or absence of LDA
Excerpt: FIG. 5. Relative telomere length of T-cell leukemic cell line (Loucy) after 12 Gy of radiation in the presence or absence of LDA treatment.

T1 sequence (O14746 whole entry): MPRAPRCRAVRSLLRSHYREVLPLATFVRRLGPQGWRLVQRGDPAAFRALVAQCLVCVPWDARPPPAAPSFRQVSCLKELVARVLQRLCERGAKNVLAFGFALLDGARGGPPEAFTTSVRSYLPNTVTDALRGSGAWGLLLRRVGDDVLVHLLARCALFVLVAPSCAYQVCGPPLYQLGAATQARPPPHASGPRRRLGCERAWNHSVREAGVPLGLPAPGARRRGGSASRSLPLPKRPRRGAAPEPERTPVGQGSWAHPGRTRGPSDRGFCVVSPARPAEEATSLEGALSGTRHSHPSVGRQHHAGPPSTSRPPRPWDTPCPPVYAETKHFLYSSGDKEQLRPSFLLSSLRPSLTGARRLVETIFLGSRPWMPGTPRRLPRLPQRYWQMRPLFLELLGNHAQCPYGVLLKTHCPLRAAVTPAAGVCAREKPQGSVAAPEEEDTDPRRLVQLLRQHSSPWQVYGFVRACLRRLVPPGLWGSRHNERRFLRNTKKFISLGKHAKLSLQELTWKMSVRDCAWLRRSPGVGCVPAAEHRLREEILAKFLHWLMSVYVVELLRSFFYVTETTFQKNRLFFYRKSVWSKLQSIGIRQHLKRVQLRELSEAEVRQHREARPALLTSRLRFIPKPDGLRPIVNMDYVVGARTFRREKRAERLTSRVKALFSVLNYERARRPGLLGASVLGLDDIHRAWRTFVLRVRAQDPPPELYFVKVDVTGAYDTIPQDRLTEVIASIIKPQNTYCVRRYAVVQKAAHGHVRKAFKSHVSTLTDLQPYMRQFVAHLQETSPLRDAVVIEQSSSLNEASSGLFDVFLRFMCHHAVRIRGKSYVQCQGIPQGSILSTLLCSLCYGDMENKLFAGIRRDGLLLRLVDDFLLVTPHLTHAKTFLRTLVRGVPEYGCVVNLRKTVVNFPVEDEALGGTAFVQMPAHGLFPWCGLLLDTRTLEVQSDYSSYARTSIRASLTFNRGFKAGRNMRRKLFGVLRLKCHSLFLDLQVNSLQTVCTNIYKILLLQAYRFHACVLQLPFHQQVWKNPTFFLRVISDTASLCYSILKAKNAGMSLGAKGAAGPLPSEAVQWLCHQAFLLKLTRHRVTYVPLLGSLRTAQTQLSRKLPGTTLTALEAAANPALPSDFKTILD
T1 sequence (O60832 whole entry partner): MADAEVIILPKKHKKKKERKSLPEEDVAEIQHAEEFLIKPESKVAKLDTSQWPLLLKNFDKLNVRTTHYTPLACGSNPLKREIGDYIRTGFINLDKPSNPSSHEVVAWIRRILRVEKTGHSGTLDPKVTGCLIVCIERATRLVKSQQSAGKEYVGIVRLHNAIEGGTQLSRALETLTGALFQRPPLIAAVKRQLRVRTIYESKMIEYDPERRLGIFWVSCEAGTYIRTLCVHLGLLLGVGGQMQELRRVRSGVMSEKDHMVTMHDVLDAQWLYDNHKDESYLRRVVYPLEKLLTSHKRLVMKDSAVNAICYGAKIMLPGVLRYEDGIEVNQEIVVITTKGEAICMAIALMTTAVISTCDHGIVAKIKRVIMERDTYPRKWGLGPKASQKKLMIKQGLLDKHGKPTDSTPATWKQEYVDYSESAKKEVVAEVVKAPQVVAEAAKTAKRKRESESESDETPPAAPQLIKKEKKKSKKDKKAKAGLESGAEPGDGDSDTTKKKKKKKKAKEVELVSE
T1 sequence (Q9NPE3 whole entry partner): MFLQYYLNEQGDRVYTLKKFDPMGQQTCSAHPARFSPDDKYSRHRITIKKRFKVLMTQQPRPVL
T1 sequence (Q9NX24 whole entry partner): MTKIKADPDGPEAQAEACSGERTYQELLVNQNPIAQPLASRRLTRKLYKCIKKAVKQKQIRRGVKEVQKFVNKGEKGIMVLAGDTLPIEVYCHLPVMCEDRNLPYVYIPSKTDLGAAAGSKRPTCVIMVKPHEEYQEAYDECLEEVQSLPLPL
T1 sequence (Q9NY12 whole entry partner): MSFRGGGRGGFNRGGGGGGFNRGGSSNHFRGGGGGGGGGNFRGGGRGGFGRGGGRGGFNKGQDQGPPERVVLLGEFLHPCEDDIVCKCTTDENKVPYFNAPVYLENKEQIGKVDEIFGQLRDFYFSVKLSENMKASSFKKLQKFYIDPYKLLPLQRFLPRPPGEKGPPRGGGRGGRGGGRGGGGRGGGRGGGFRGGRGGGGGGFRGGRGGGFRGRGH
T1 sequence (Q9BUR4 whole entry partner): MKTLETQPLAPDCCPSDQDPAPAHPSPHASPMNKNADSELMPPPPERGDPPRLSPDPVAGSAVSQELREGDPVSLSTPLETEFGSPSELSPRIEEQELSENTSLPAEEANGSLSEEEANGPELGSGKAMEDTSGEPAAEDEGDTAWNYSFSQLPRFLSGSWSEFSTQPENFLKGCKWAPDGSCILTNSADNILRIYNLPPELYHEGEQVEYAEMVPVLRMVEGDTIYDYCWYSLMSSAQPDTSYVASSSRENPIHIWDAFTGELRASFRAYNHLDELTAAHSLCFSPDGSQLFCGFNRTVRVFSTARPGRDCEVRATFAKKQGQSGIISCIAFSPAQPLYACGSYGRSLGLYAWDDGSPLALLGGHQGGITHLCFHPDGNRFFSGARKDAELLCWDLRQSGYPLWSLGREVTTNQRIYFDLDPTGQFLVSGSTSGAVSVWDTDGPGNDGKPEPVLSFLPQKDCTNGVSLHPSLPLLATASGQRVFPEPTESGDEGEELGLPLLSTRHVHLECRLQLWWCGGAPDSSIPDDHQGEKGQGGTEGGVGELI

Molecule: [AsH3] [arsenic]
- arsenic-induced malignancy [1]: not observed any arsenic-induced malignancy
- telomerase activity (TRAP) [2]: no obvious difference in telomerase activity

Molecule: O[As](O)O [arsenite]
- concentration resulting in induced proliferation with enhanced NF-κB and AP-1 activity ([3]; 24 hr): ≤ 5 µM
- concentration with statistically significant decrease of cell viability [3]: ≥ 10 µM

Molecule: C#C[C@]1(O)CC[C@H]2[C@@H]3CCC4=Cc5oncc5C[C@]4(C)[C@H]3CC[C@@]21C [danazol]
- telomere attrition [4]: significantly reduce telomere attrition

Molecule: O=[As]O [sodium arsenite]
- spontaneous deletion of miniHPRT (percentage of 6-TG-resistant cells) ([5]; 5 nM sodium arsenite): reduced this deletion
- spontaneous deletion of miniHPRT (percentage of 6-TG-resistant cells) ([5]; 100 nM sodium arsenite): reduced this deletion

Molecule: arsenic trioxide
- arsenic trioxide related toxicity ([6]; patients, first stage, arsenic trioxide intravenously): None of these patients experienced any arsenic trioxide related toxicity

Molecule: arsenic trioxide [LDA]
- telomere length after IR [7]: maintenance of telomere length; also recorded: helps prevent shortening of telomere length
- LDA protection of control and msh2−/− cells from γ radiation (survival fraction) ([8]; 100 nM Na arsenite 24 hours before γ radiation): protects both control and msh2^−/− cells from γ radiation
- LDA-mediated protection in p53−/− cells versus WT (survival fraction) ([8]; 100 nM Na arsenite, γ radiation, differences small): p53 appears to assist in LDA-mediated protection
- growth of the implanted tumors (tumor volume) ([9]; LDA pretreatment alone): did not have any detectable effect
- effect of LDA pretreatment on Y-90-induced tumor growth suppression ([9]; LDA pretreatment followed by Y-90 ibritumomab tiuxetan): without compromising tumor response; also recorded: no effect
- glycolysis [10]: marked induction of glycolysis
- p53 and NF-kB response [10]: induces concerted p53 suppression and NF-kB activation
- bone marrow cell loss (loss of cellularity), H&E staining ([11]; LDA pretreatment (drinking water 1 mg/L arsenic trioxide, three days) before 200 μCi Y-90 ibritumomab tiuxetan via tail vein): protected; also recorded: significantly reduced
- apoptosis, TUNEL positive cells in bone marrow ([11]; LDA pretreatment before 200 μCi Y-90 ibritumomab tiuxetan): protected
- DNA DSBs, γ-H2AX positive cells in bone marrow ([11]; LDA pretreatment before 200 μCi Y-90 ibritumomab tiuxetan, 6 hours to 1 week after treatment): protected; also recorded: considerably diminished
- telomere length of leukemic cells [12]: does not make any difference
- mean ANC, WBC and Hgb, p53 suppressed group relative to activated group ([6]; 26 patients, LDA 0.005 mg/kg for 3 days before myelosuppressive chemotherapy cycles): statistically significantly higher; also recorded: better blood counts
